Experimental data as given in US20050209151A1, “Use of peptides” (priority 1999, published 2005).
Where no end group is shown, it is not given here.

How the values were obtained:
[1] = test system: ACTH concentration in blood; test: ACTH concentration in blood after intraventricular administration of PrRP-31; format: in vivo, Wistar rats; settings: PrRP-31 1, 3 or 10 nmol intraventricular
Protocol: (§1) Adult male Wistar rats (body weight 350 to […] at surgery) were anesthetized with intraperitoneal administration of 50 mg/kg pentobarbital and immobilized in stereotaxic instruments. The incisor bar was set 3.3 mm below the interaural line. The skull was exposed, and a hole was drilled with a dental drill to implant a guide cannula AG-12 (inside diameter of 0.4 mm, outside diameter of 0.5 mm, by Eicom) in the third ventricle. Anchor screws were implanted in four surrounding locations. The tip of the stainless steel guide cannula AG-12 was inserted into position in the upper part of the third ventricle. The stereotaxic coordinates were AP: +7.1 mm, L: 0.0 mm, H: +2.0 mm, from the interaural line, according to the atlas of Paxinos and Watson (1986). The guide cannula was secured to the skull with instant adhesive, dental cement, and the anchor screws. A stainless-steel dummy cannula AD-12 (0.35 mm outside diameter, by Eicom) was then inserted into the guide cannula and secured with a cap nut (by Eicom). The rats were post-operatively housed in individual cages.
(§2) The animals were allowed to recover for about 1 week after the implantation of the guide cannulas, and blood samples were taken as they were allowed to move freely. The rats were then anesthetized with intraperitoneal administration of 50 mg/kg pentobarbital. […]

[2] = test system: β-endorphin concentration in blood; test: β-endorphin concentration in blood after intraventricular administration of PrRP-31; format: in vivo, Wistar rats; settings: PrRP-31 1, 3 or 10 nmol intraventricular
Protocol: as §1, §2

[3] = plasma radioimmunoassay, 0-60 min

PrRP-31: amide form of the peptide consisting of the amino acid sequence in SEQ ID NO. 32 (SRTHRHSMEIRTPDINPAWYASRGIRPVGRF-NH2)
time of peak ACTH concentration in blood after dosing [1]: 15 min
ACTH concentration in blood compared to the control group [1, 3]: higher concentration-dependent increases
time of peak β-endorphin concentration in blood after dosing [2]: 15 min
β-endorphin concentration in blood compared to the control group [2, 3]: higher concentration-dependent increases
